Tests used:
ABUTH [1] = assay: Pre-emergence action against ABUTH, 1280 g/ha; assay type: in vivo, Abutilon theophrasti; conditions: scored visually after about 3 weeks vs untreated controls (100% = plants have died)
In short: (§1)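 In greenhouse pots of sandy loam, sown weed seeds were covered with soil and treated pre-emergence with the compound in water (600 L/ha, 0.5% additive). Efficacy was assessed visually as percent of untreated control after about 3 weeks.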

MATIN [2] = assay: Pre-emergence action against MATIN, 1280 g/ha; assay type: in vivo, Tripleurospermum inodorum (Matricaria inodora); conditions: scored visually after about 3 weeks vs untreated controls (100% = plants have died)
In short: as §1

SETVI [3] = assay: Pre-emergence action against SETVI, 1280 g/ha; assay type: in vivo, Setaria viridis; conditions: visual scoring after about 3 weeks vs untreated controls, 100% = plants have died, 0% = like control plants
In short: as §1

POLCO = assay: Pre-emergence action at 320 g/ha against POLCO; assay type: in vivo, Fallopia convolvulus (Polygonum convolvulus); conditions: visual scoring after about 3 weeks vs untreated controls
In short: (§2)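 Application: aqueous WP or EC with 0.5% additive on soil covering seeds, 600 l/ha. Read-out: visual percent damage after ~3 weeks in greenhouse, untreated pots as reference.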

VIOTR = assay: Pre-emergence action at 320 g/ha against VIOTR; assay type: in vivo, Viola tricolor; conditions: dosage 320 g/ha
In short: as §2

ABUTH [4] = assay: Post-emergence action against ABUTH, 1.28 kg/ha; assay type: in vivo, Abutilon theophrasti; conditions: dosage 1280 g/ha, visual rating about 3 weeks after treatment vs untreated controls (100% = plants died)
In short: (§3)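 Visual rating against untreated plants about 3 weeks after spraying gives % activity, where 0% means like controls and 100% means plants died. Plants were treated post-emergence at the one-leaf stage with compound formulated as wettable powder or emulsion concentrate, applied at 600 L water/ha plus 0.5% additive.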

ECHCG [5] = assay: Post-emergence action against ECHCG, 1.28 kg/ha; assay type: in vivo, Echinochloa crus-galli; conditions: dosage 1280 g/ha, visual rating about 3 weeks after treatment vs untreated controls
In short: as §3

LOLRI [6] = assay: Post-emergence action against LOLRI, 1.28 kg/ha; assay type: in vivo, Lolium rigidum; conditions: dosage 1280 g/ha, visual rating about 3 weeks after treatment vs untreated controls
In short: as §3

LOLRI [7] = assay: Pre-emergence action at 320 g/ha against LOLRI; assay type: in vivo, Lolium rigidum; conditions: visual scoring after about 3 weeks vs untreated controls
In short: as §2

DIGSA [8] = assay: Pre-emergence action at 320 g/ha against DIGSA; assay type: in vivo, Digitaria sanguinalis; conditions: visual scoring after about 3 weeks vs untreated controls
In short: as §2

AMARE [9] = assay: Pre-emergence action against AMARE, 1280 g/ha; assay type: in vivo, Amaranthus retroflexus; conditions: scored visually after about 3 weeks vs untreated controls (100% = plants have died)
In short: as §1

LOLRI [10] = assay: Pre-emergence action against LOLRI, 1280 g/ha; assay type: in vivo, Lolium rigidum; conditions: visual scoring after about 3 weeks vs untreated controls, 100% = plants have died, 0% = like control plants
In short: as §1

KCHSC [11] = assay: Post-emergence action against KCHSC, 1.28 kg/ha; assay type: in vivo, Bassia scoparia; conditions: dosage 1280 g/ha, visual rating about 3 weeks after treatment vs untreated controls (100% = plants died)
In short: as §3

ALOMY [12] = assay: Pre-emergence action against ALOMY, 1280 g/ha; assay type: in vivo, Alopecurus myosuroides; conditions: visual scoring after about 3 weeks vs untreated controls, 100% = plants have died, 0% = like control plants
In short: as §1

ECHCG [13] = assay: Pre-emergence action against ECHCG, 1280 g/ha; assay type: in vivo, Echinochloa crus-galli; conditions: visual scoring after about 3 weeks vs untreated controls, 100% = plants have died, 0% = like control plants
In short: as §1

ALOMY [14] = assay: Post-emergence action against ALOMY, 1.28 kg/ha; assay type: in vivo, Alopecurus myosuroides; conditions: dosage 1280 g/ha, visual rating about 3 weeks after treatment vs untreated controls
In short: as §3

STEME [15] = assay: Pre-emergence action against STEME, 1280 g/ha; assay type: in vivo, Stellaria media; conditions: scored visually after about 3 weeks vs untreated controls (100% = plants have died)
In short: as §1

ABUTH [16] = assay: Pre-emergence action at 320 g/ha against ABUTH; assay type: in vivo, Abutilon theophrasti; conditions: greenhouse, scored visually after about 3 weeks vs untreated controls, 100% = plants have died, 0% = like control plants
Text: b) Seeds of monocotyledonous and dicotyledonous weed plants and crop plants are placed in plastic or organic planting pots and covered with soil. The compounds of the invention, formulated in the form of wettable powders (WP) or as emulsion concentrates (EC), are then applied onto the surface of the covering soil as aqueous suspension or emulsion with addition of 0.5% additive at a water application rate of 600 l/ha (converted). After the treatment, the pots are placed in a greenhouse and kept under good growth conditions for the trial plants. After about 3 weeks, the effect of the preparations is scored visually in comparison with untreated controls as percentages. For example, 100% activity=the plants have died, 0% activity=like control plants. Tables 13 to 26 below show the effects of selected compounds of the general formula (I) on various harmful plants and at an application rate corresponding to 320 g/ha, which were obtained by the experimental procedure mentioned above.

MATIN [17] = assay: Pre-emergence action at 320 g/ha against MATIN; assay type: in vivo, Tripleurospermum inodorum (Matricaria inodora); conditions: visual scoring after about 3 weeks vs untreated controls
In short: as §2

POAAN [18] = assay: Post-emergence action against POAAN, 1.28 kg/ha; assay type: in vivo, Poa annua; conditions: dosage 1280 g/ha, visual rating about 3 weeks after treatment vs untreated controls
In short: as §3

DIGSA [19] = assay: Post-emergence action against DIGSA, 1.28 kg/ha; assay type: in vivo, Digitaria sanguinalis; conditions: dosage 1280 g/ha, visual rating about 3 weeks after treatment vs untreated controls
In short: as §3

ALOMY [20] = assay: Pre-emergence action at 320 g/ha against ALOMY; assay type: in vivo, Alopecurus myosuroides; conditions: scored visually after about 3 weeks vs untreated controls (100% = plants have died)
In short: as §2

VERPE [21] = assay: Post-emergence action against VERPE, 1.28 kg/ha; assay type: in vivo, Veronica persica; conditions: dosage 1280 g/ha, visual rating about 3 weeks after treatment vs untreated controls (100% = plants died)
In short: as §3

SETVI [22] = assay: Pre-emergence action at 320 g/ha against SETVI; assay type: in vivo, Setaria viridis; conditions: visual scoring after about 3 weeks vs untreated controls
In short: as §2

MATIN [23] = assay: Post-emergence action against MATIN, 1.28 kg/ha; assay type: in vivo, Tripleurospermum inodorum (Matricaria inodora); conditions: dosage 1280 g/ha, visual rating about 3 weeks after treatment vs untreated controls (100% = plants died)
In short: as §3

STEME [24] = assay: Post-emergence action against STEME, 1.28 kg/ha; assay type: in vivo, Stellaria media; conditions: dosage 1280 g/ha, visual rating about 3 weeks after treatment vs untreated controls (100% = plants died)
In short: as §3

DIGSA [25] = assay: Pre-emergence action against DIGSA, 1280 g/ha; assay type: in vivo, Digitaria sanguinalis; conditions: visual scoring after about 3 weeks vs untreated controls, 100% = plants have died, 0% = like control plants
In short: as §1

POAAN [26] = assay: Pre-emergence action against POAAN, 1280 g/ha; assay type: in vivo, Poa annua; conditions: visual scoring after about 3 weeks vs untreated controls, 100% = plants have died, 0% = like control plants
In short: as §1

AVEFA = assay: Pre-emergence action at 320 g/ha against AVEFA; assay type: in vivo; conditions: visual scoring after about 3 weeks vs untreated controls
In short: as §2

KCHSC [27] = assay: Pre-emergence action against KCHSC, 1280 g/ha; assay type: in vivo, Bassia scoparia; conditions: scored visually after about 3 weeks vs untreated controls (100% = plants have died)
In short: as §1

AMARE [28] = assay: Pre-emergence action at 320 g/ha against AMARE; assay type: in vivo, Amaranthus retroflexus; conditions: visual scoring after about 3 weeks vs untreated controls
In short: as §2

PHBPU = assay: Pre-emergence action at 320 g/ha against PHBPU; assay type: in vivo; conditions: visual scoring after about 3 weeks vs untreated controls
In short: as §2

VERPE [29] = assay: Pre-emergence action at 320 g/ha against VERPE; assay type: in vivo, Veronica persica; conditions: visual scoring after about 3 weeks vs untreated controls
In short: as §2

VERPE [30] = assay: Pre-emergence action against VERPE, 1280 g/ha; assay type: in vivo, Veronica persica; conditions: scored visually after about 3 weeks vs untreated controls (100% = plants have died)
In short: as §1

AMARE [31] = assay: Post-emergence action against AMARE, 1.28 kg/ha; assay type: in vivo, Amaranthus retroflexus; conditions: dosage 1280 g/ha, visual rating about 3 weeks after treatment vs untreated controls (100% = plants died)
In short: as §3

C[C@@H](Oc1nn(-c2ccccc2F)c(-c2cncnc2)c1Cl)C(=O)O [VI-018]
Pre-emergence action against ABUTH (ABUTH [1]): 90%
Pre-emergence action against MATIN (MATIN [2]): 100%
Pre-emergence action against SETVI (SETVI [3]): 100%
Pre-emergence action against POLCO in % (POLCO): 90%
Pre-emergence action against VIOTR in % (VIOTR): 90%
Post-emergence action against ABUTH (ABUTH [4]): 90%
Post-emergence action against ECHCG (ECHCG [5]): 100%
Post-emergence action against LOLRI (LOLRI [6]): 90%
Pre-emergence action against LOLRI in % (LOLRI [7]): 100%
Pre-emergence action against DIGSA in % (DIGSA [8]): 100%
Pre-emergence action against AMARE (AMARE [9]): 100%
Pre-emergence action against LOLRI (LOLRI [10]): 100%
Post-emergence action against KCHSC (KCHSC [11]): 90%
Pre-emergence action against ALOMY (ALOMY [12]): 100%
Pre-emergence action against ECHCG (ECHCG [13]): 100%
Post-emergence action against ALOMY (ALOMY [14]): 100%
Pre-emergence action against STEME (STEME [15]): 100%
Pre-emergence action at 320 g/ha against ABUTH in % (ABUTH [16]): 80%
Pre-emergence action against MATIN in % (MATIN [17]): 90%
Post-emergence action against POAAN (POAAN [18]): 100%
Post-emergence action against DIGSA (DIGSA [19]): 100%
Pre-emergence action at 320 g/ha against ALOMY in % (ALOMY [20]): 100%
Post-emergence action against VERPE (VERPE [21]): 100%
Pre-emergence action against SETVI in % (SETVI [22]): 100%
Post-emergence action against MATIN (MATIN [23]): 100%
Post-emergence action against STEME (STEME [24]): 90%
Pre-emergence action against DIGSA (DIGSA [25]): 100%
Pre-emergence action against POAAN (POAAN [26]): 100%
Pre-emergence action against AVEFA in % (AVEFA): 80%
Pre-emergence action against KCHSC (KCHSC [27]): 100%
Pre-emergence action against AMARE in % (AMARE [28]): 100%
Pre-emergence action against PHBPU in % (PHBPU): 90%
Pre-emergence action against VERPE in % (VERPE [29]): 80%
Pre-emergence action against VERPE (VERPE [30]): 100%
Post-emergence action against AMARE (AMARE [31]): 90%
